Measured values as given in patent EP4755880A1, “SUBSTITUTED NITROGEN-CONTAINING BICYCLIC COMPOUND AND USE THEREOF” (Sunshine Lake Pharma Co., Ltd., priority 2023, dated 2025).

Tests used:
PARP1 = PARP1 (Homo sapiens, UniProt P09874); experiment: Inhibition of PARP1 enzyme activity (ELISA, chemiluminescence); format: biochemical; details: for IC50: ELISA, histone-coated plate, NAD+, 60 min at 25 °C; for Selectivity PARP2/PARP1: ratio of PARP2 IC50 to PARP1 IC50
Experimental: Experimental Objective: To evaluate the inhibitory effect of the compounds of the present invention on the enzyme activities of PARP1 and PARP2 using ELISA.
• 1. histone-coated 384-well plates was prepared: 25 µL of histone solution was added to each well and incubated overnight at 4 °C. • 2. PBST buffer, blocking buffer (PBS buffer with 5% BSA and 0.05% Tween-20 added) and detection buffer (20 mM HEPES pH 7.5 + 100 mM NaCl + 2 mM DTT + 0.002% Tween-20 + 0.1% BSA) were prepared. • 3. The histone-coated 3 84-well plate was washed three times with PBST buffer, blocked at room temperature with 50 µL blocking buffer for 1 hour, and then washed three times with PBST buffer. • 4. Test compounds were prepared as 2000-fold stock solutions in DMSO. 50 nL of the stock solution was mixed with 19.95 µL detection buffer, and 5 µL of the gradient-diluted test compound was transferred to each well. • 5. Enzymatic reaction (PARP1): PARP1 & DNA mix was pre-incubated at 25 °C for 10 minutes. 10 µL of the PARP1 & DNA mix was added to each well and incubated with the test compound at room temperature for 10 minutes. […] Finally, the 384-well plate was washed three times with PBST buffer. Enzymatic reaction (PARP2): PARP2 was pre-incubated at 25 °C for 10 minutes. 10 µL of PARP2 was added to each well and incubated with the test compound at room temperature for 10 minutes. […] Finally, the 384-well plate was washed three times with PBST buffer. • 6. Detection (PARP1): 20 µL of anti-Poly/Mono-ADP Ribose Rabbit mAb was added and incubated at room temperature for 1.5 hours, followed by three washes of the 384-well plate with PBST buffer. Then, 20 µL of diluted anti-rabbit IgG, HRP-linked Antibody (diluted 1:2000 in blocking buffer) was added and incubated at room temperature for 1 hour. After washing the plate three times with PBST buffer, 25 µL of a 1:1 mixture of Femto-ECL Substrate A and Femto-ECL Substrate B was added. Detection (PARP2): 25 µL of Strep-HRP was added and incubated at room temperature for 1 hour, followed by three washes of the 384-well plate with PBS buffer. Then, 25 µL of a 1:1 mixture of Femto-ECL Substrate A and Femto-ECL Substrate B was added. • 7. Chemiluminescence intensity was measured using an Envision multimode microplate reader. • 8. Data Processing
The inhibition rate was calculated in Excel using formula (1). inh% = (Max−Signal)/(Max−Min)*100 [formula]
The IC50 value was obtained by fitting the data in XL-Fit using formula (2). Y = bottom + (top−bottom)/(1+(IC50/X)*HillSlope); [formula] wherein Y is the inhibition percentage and X is the compound concentration.

DLD-1 BRCA2(-/-) cells = experiment: Inhibition of proliferation of DLD-1 BRCA2(-/-) cells (CTG method); format: cell-based; details: Homo sapiens, DLD-1, 168 h; 7 days incubation, CellTiter-Glo
Experimental: • 1. Cell Pretreatment: DLD-1 BRCA2(-/-) cells were cultured in growth medium 1640 + 10% FBS (fetal bovine serum) + 1% Penicillin-Streptomycin. Cells in the logarithmic growth phase were digested with trypsin-EDTA, centrifuged, and resuspended. DLD-1 BRCA2(-/-) cells were seeded at 1,000 cells/well in sterile 96-well opaque plates, 75 µl per well. After seeding, the cell culture plates were incubated overnight at 37 °C with 5% CO2 before adhesion, followed by treatment with the test compounds. • 2. DLD-1 BRCA2(-/-) Cell Drug Treatment: The test compound was prepared as a 10 mM stock solution using DMSO. The test compound was then diluted to a 4× working solution using growth medium (starting at 40 µM, with 9 4-fold dilutions). 25 µl of 4× working solution was added to each well to achieve final concentrations of 10000, 2500, 625, 156, 39, 9.7, 2.4, 0.61, and 0.152 nM, respectively. Blank control wells containing the same DMSO concentration were also included, with three replicates for each concentration. After adding the test compound, the cells were incubated at 37 °C with 5% CO2 for 7 days. • 3. After incubation, 100 µl of CellTiter-Glo® Reagent was added to each well, and […] intensity was measured. A curve was fitted using GraphPad software, and the IC50 value for cell proliferation inhibition was calculated.

MDA-MB-436 cells = experiment: Inhibition of proliferation of MDA-MB-436 cells (CellTiter-Glo); format: cell-based; details: Homo sapiens, MDA-MB-436, 168 h, 7 days incubation
Experimental: • 1. Cell Pretreatment: MDA-MB-436 cells were cultured in DMEM + 10% FBS + 1% penicillin-dip antibiotics + 1% ITS + 16 µg/ml glutathione. Cells in the logarithmic growth phase were digested with trypsin-EDTA, centrifuged and resuspended, and then seeded at a rate of 500-1000 cells/well in sterile 96-well opaque plates, 90 µl per well. After seeding, the cell culture plates were incubated overnight at 37°C with 5% CO2 before drug treatment. • 2. Drug treatment of MDA-MB-436 cells: The test compound was prepared as a 10 mM stock solution using DMSO. The drug was then diluted to a 10× working solution using growth medium (the compound was started at 100 µM and diluted 4-fold to achieve 9 concentrations). 10 µl of the 10× working solution was added to each well to achieve final drug concentrations of 10000, 2500, 625, 156, 39, 9.7, 2.4, 0.61, and 0.152 nM, respectively. Blank control wells containing the same DMSO concentration were also included, with three replicates for each concentration. After drug addition, the cells were incubated at 37°C with 5% CO2 for 7 days. • 3. After incubation, 100 µl of CellTiter-Glo® Reagent was added to each well, and luminescence was measured. The IC50 value of cell proliferation inhibition was calculated using GraphPad software to fit the curve. Table E: Results of the inhibitory effect of the compound of this invention on the proliferation of MDA-MB-436 cells.

PARP2 = PARP2 (Homo sapiens, UniProt Q9UGN5); experiment: biochemical;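 further: PARP2 enzyme ELISA on histone-coated plates, Strep-HRP detection with chemiluminescence read-out, 10 min compound preincubation with enzyme, inhibition scaled between Max and Min signal controls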
PARP2, sequence (Q9UGN5 whole entry): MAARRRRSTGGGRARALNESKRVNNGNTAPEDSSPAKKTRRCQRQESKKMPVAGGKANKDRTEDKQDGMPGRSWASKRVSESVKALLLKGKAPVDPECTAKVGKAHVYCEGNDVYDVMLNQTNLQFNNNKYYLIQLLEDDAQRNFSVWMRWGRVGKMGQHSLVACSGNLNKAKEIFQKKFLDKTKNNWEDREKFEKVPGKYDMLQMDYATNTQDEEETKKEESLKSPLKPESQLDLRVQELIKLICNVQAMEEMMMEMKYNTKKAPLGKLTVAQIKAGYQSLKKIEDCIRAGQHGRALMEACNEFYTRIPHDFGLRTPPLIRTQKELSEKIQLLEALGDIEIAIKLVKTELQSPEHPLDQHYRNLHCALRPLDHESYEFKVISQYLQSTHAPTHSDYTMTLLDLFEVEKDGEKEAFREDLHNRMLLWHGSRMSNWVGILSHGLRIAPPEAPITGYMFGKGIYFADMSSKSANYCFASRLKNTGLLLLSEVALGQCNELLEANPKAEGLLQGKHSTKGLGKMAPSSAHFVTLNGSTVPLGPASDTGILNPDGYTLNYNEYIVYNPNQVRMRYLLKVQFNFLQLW

PARP1, sequence (P09874 whole entry): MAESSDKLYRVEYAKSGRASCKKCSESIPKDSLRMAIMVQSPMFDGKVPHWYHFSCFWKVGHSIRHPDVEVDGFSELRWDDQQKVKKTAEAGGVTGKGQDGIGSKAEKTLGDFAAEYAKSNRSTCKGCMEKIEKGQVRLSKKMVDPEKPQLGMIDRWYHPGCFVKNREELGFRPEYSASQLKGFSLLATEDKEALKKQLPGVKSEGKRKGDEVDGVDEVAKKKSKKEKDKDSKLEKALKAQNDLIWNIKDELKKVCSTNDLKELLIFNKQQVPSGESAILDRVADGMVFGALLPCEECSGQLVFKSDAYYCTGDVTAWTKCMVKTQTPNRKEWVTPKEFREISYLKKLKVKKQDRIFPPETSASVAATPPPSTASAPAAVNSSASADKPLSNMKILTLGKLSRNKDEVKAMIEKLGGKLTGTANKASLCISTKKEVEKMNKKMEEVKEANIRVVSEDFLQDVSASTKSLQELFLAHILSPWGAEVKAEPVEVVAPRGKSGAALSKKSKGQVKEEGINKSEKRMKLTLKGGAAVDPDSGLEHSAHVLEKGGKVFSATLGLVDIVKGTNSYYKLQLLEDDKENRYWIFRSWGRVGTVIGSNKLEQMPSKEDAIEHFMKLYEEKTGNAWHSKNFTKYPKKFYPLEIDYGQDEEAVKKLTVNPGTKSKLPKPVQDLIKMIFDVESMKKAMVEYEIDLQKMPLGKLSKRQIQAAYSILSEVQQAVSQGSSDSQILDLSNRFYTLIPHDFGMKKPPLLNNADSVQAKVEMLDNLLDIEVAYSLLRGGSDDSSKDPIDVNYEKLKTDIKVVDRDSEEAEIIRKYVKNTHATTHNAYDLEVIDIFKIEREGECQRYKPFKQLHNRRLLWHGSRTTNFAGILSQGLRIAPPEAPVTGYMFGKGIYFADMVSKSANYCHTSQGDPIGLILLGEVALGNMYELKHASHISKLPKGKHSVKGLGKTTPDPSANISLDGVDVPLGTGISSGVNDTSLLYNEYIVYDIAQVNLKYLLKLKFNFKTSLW

| IC50 (PARP1) [nM] | Selectivity PARP2/PARP1 (PARP1) | IC50 (DLD-1 BRCA2(-/-) cells) [nM] | IC50 (MDA-MB-436 cells) [nM] | IC50 (PARP2) [nM] | SMILES |
| --- | --- | --- | --- | --- | --- |
| 6.9 | >1456.3 | 18.6 | 0.6 | > 10000 | CC#Cc1cc(CN2CCN(c3ccc(C(=O)NC4CC4)nc3F)CC2)c(F)c2[nH]c(=O)c(C)nc12 [Example 47, N-cyclopropyl-6-fluoro-5-(4-((5-fluoro-2-methyl-3-oxo-8-(prop-1-yn-1-yl)-3,4-dihydroquinoxalin-6-yl)methyl)piperazin-1-yl)picolinamide] |
| 3.2 | 17.0 | 12.9 | 9.1 | 54 | CNC(=O)c1ccc(N2CCN(Cc3cc(OC(F)F)c4nc(C)c(=O)[nH]c4c3)CC2)cn1 [Example 49, 5-(4-((8-(difluoromethoxy)-2-methyl-3-oxo-3,4-dihydroquinoxalin-6-yl)methyl)piperazin-1-yl)-N-methylpicolinamide] |
| 7.6 | 26.7 | 18.4 | 28.7 | 203 | CNC(=O)c1ccc(N2CCN(Cc3cc(OC(F)F)c4nc(C5CC5)c(=O)[nH]c4c3)CC2)c(F)n1 [Example 54, 5-(4-((2-cyclopropyl-8-(difluoromethoxy)-3-oxo-3,4-dihydroquinoxalin-6-yl)methyl)piperazin-1-yl)-6-fluoro-N-methylpicolinamide] |
| 1.9 | 7.6 | 3.9 | < 0.038 | 14.3 | CNC(=O)c1ccc(N2CCN(Cc3cc(OC(F)F)c4cc(C)c(=O)[nH]c4c3)CC2)c(F)n1 [Example 55, 5-(4-((5-(difluoromethoxy)-3-methyl-2-oxo-1,2-dihydroquinolin-7-yl)methyl)piperazin-1-yl)-6-fluoro-N-methylpicolinamide] |
| 1.7 | 47.3 | 2.9 | 1.7 | 79.5 | Cc1nc2c(OC(F)F)cc(CN3CCN(c4ccc(C(=O)N[C@H]5C[C@H]5F)nc4F)CC3)cc2[nH]c1=O [Example 57, 5-(4-((8-(difluoromethoxy)-2-methyl-3-oxo-3,4-dihydroquinoxalin-6-yl)methyl)piperazin-1-yl)-6-fluoro-N-((1S,2R)-2-fluorocyclopropyl)picolinamide] |
| 1.9 | 650.4 | 8 | 26.3 | 1220 | CNC(=O)c1ccc2c(n1)COC[C@H]1CN(Cc3cc(OC(F)F)c4nc(C)c(=O)[nH]c4c3)CCN21 [Example 59, (R)-3-((8-(difluoromethoxy)-2-methyl-3-oxo-3,4-dihydroquinoxalin-6-yl)methyl)-N-methyl-2,3,4,4a,5,7-hexahydro-1H-pyrazino[2,1-c]pyrido[3,2-e][1,4]oxazepine-9-carboxamide] |
| 2.9 | 2030.7 | 8.58 | 31.2 | 5820 | CNC(=O)c1ccc(N2CCN(Cc3cc(OC(F)F)c4nc(C)c(=O)[nH]c4c3F)CC2)c(C)n1 [Example 60, 5-(4-((8-(difluoromethoxy)-5-fluoro-2-methyl-3-oxo-3,4-dihydroquinoxalin-6-yl)methyl)piperazin-1-yl)-N,6-dimethylpicolinamide] |
| 3.2 | 398.8 | 16.1 | 6.2 | 1280 | CC#Cc1cc(CN2CCN3c4ccc(C(=O)NC)nc4COC[C@H]3C2)cc2[nH]c(=O)c(C)nc12 [Example 63, (R)-N-methyl-3-((2-methyl-3-oxo-8-(prop-1-yn-1-yl)-3,4-dihydroquinoxalin-6-yl)methyl)-2,3,4,4a,5,7-hexahydro-1H-pyrazino[2,1-c]pyrido[3,2-e][1,4]oxazepine-9-carboxamide] |

Second part, the compound before the results:

| SMILES | IC50 (PARP1) [nM] | Selectivity PARP2/PARP1 (PARP1) | IC50 (DLD-1 BRCA2(-/-) cells) [nM] | IC50 (MDA-MB-436 cells) [nM] | IC50 (PARP2) [nM] |
| --- | --- | --- | --- | --- | --- |
| C#Cc1cc(CN2CCN(c3ccc(C(=O)NC)nc3F)CC2)cc2[nH]c(=O)c(C)nc12 [Example 20, 5-(4-((8-ethynyl-2-methyl-3-oxo-3,4-dihydroquinoxalin-6-yl)methyl)piperazin-1-yl)-6-fluoro-N-methylpicolinamide] | 0.6 | 124.8 | 2.4 | 3.3 | 68.9 |
| CC#Cc1cc(CN2CCN(c3ccc(C(=O)NC)nc3F)CC2)c(F)c2[nH]c(=O)c(C)nc12 [Example 21, 6-fluoro-5-(4-((5-fluoro-2-methyl-3-oxo-8-(prop-1-yn-1-yl)-3,4-dihydroquinoxalin-6-yl)methyl)piperazin-1-yl)-N-methylpicolinamide] | 6.7 | >1480 | 22.2 | 22.9 | > 10000 |
| CNC(=O)c1ccc(N2CCN(Cc3cc(Oc4ccc(C#N)cc4)c4nc(C)c(=O)[nH]c4c3)CC2)c(F)n1 [Example 32, 5-(4-((8-(4-cyanophenoxy)-2-methyl-3-oxo-3,4-dihydroquinoxalin-6-yl)methyl)piperazin-1-yl)-6-fluoro-N-methylpicolinamide] | 2.8 | >833 | 68.8 | 40.1 | > 10000 |
| CNC(=O)c1ccc(N2CCN(Cc3cc(Nc4ccc(F)cc4)c4nc(C)c(=O)[nH]c4c3)CC2)c(F)n1 [Example 33, 6-fluoro-5-(4-((8-((4-fluorophenyl)amino)-2-methyl-3-oxo-3,4-dihydroquinoxalin-6-yl)methyl)piperazin-1-yl)-N-methylpicolinamide] | 1.2 | 188.8 | 9.3 | 4.1 | 234 |
| CC#Cc1cc(CN2CC=C(c3ccc(C(=O)NC4CC4)nc3F)CC2)cc2[nH]c(=O)c(C)nc12 [Example 39, N-cyclopropyl-2-fluoro-1'-((2-methyl-3-oxo-8-(prop-1-yn-1-yl)-3,4-dihydroquinoxalin-6-yl)methyl)-1',2',3',6'-tetrahydro-[3,4'-bipyridine]-6-carboxamide] | 2.9 | 206.8 | 7.7 | < 0.038 | 599 |
| CC#Cc1cc(CN2CCN(c3ccc(C#N)cn3)CC2)cc2[nH]c(=O)c(C)nc12 [Example 43, 6-(4-((2-methyl-3-oxo-8-(prop-1-yn-1-yl)-3,4-dihydroquinoxalin-6-yl)methyl)piperazin-1-yl)nicotinonitrile] | 1.5 | 398.1 | 27 | 8 | 583 |
| CNC(=O)c1ccc(C2=CCN(Cc3cc(OC(F)F)c4nc(C)c(=O)[nH]c4c3)CC2)cn1 [Example 44, 1'-((8-(difluoromethoxy)-2-methyl-3-oxo-3,4-dihydroquinoxalin-6-yl)methyl)-N-methyl-1',2',3',6'-tetrahydro-[3,4'-bipyridine]-6-carboxamide] | 0.8 | 184.1 | 9.3 | 1.3 | 148 |
| CC#Cc1cc(CN2CCN(c3ccc(C(=O)NC)nc3C)CC2)c(F)c2[nH]c(=O)c(C)nc12 [Example 45, 5-(4-((5-fluoro-2-methyl-3-oxo-8-(prop-1-yn-1-yl)-3,4-dihydroquinoxalin-6-yl)methyl)piperazin-1-yl)-N,6-dimethylpicolinamide] | 7.7 | >1290.7 | 12 | 11.1 | > 10000 |
